Test results from US20260184675A1, “CHIRAL ISOMERIC SULFITE COMPOUND AND APPLICATION THEREOF” (Chengdu Hanova BioSciences Co., Ltd, priority 2024, published 2026).

Columns and labels:
Format in all cases: in vivo
[1] = test system: eggs of Tetranychus urticae; experiment: Effect on hatching of eggs of Tetranychus urticae, leaf disc method; details: 5 ppm; for Hatching rate (%): 5 days after insecticide delivery
Procedure: (§1) • (1) Preparation of leaf discs containing eggs: 20 female adult mites of Tetranychus cinnabarinus were transferred onto leaf discs of Vicia faba with a diameter of 2.0 cm (with wetted filter paper at the bottom), then covered it with a lidded culture dish and cultivated under moisturizing conditions, the adult mites were removed within 36 hours and microscopic examination and counting were performed on leaf discs containing eggs. • (2) Investigation of egg population base: Before pesticide soaking, a microscopic examination was conducted on the egg basic number of each leaf disc, with 2 replicates set for each treatment. • (3) Pesticide soaking treatment: The leaf butterflies loaded with mite eggs were soaked in clear water and sulfite compounds for 10 seconds, respectively, then taken out and cultivated under moisturizing conditions. Each treatment should be repeated for no less than 3 times. • (4) Cultivation and observation: The […] were cultivated under normal conditions. Five days after insecticide delivery, the hatching status of mite eggs was investigated. • Note: The temperature and humidity conditions of the constant temperature and humidity incubator after the treatment should be controlled so as to avoid excessive temperature differences, which may cause generation and dripping of condensate water in the culture dish, resulting in abnormal death of eggs due to soaking in water; it is also necessary to ensure sufficient strong ambient light, without directing irradiating the leaves. • (5) Survey of Results: The experimental materials of each treatment group were regularly hydrated and moisturized, and the hatching of eggs was observed. On the 7th day after insecticide delivery, the number of hatched eggs for each treatment was recorded, and the survey of results was recorded in the original notebook. According to the experimental requirements and characteristics of agents, the survey time can be shortened or extended.
(§2) • 1) Surveying and recording the number of hatched eggs for each treatment. • 2) Photographing and recording whether there was any pesticide damage to the leaf discs of Vicia faba. • 3) Recording the developmental status of experimental mite eggs, behavior status of nymph mites, including abnormal phenomena such as delayed or stopped development of mite eggs, difficulty in breaking hull for nymph mites, or painful struggles after hatching, etc. • (6) Calculation method: Based on the survey data, the prevention and control effect of each treatment was calculated according to the following formula, and the calculation results were kept to two decimal places.
(§3) This test adopted the method in Test Example 1 of technical section, mainly used leaf disc method to explore the inhibitory effect on hatching of eggs of Tetranychus urticae by compounds 1-(S,S), 1-(S,R), 1-(R,R), 1-(R,S), 1′-(S,S), 1′-(S,R), 1′-(R,R), 1′-(R,S), compound 1, compound 1′, S-10, R-10, S-10′, R-10′, compound 10, compound 10′, compound 19-(S,S), 19-(S,R), 19-(R,R), 19-(R,S), 19′-(S,S), 19′-(S,R), 19′-(R,R), 19′-(R,S), compound 19, and compound 19′. The concentration of all compounds was 5 ppm.

eggs of Thrips = experiment: Effect on hatching of eggs of Thrips, leaf disc method; details: 100 ppm; for Hatching rate (%): 5 days after insecticide delivery
Procedure: as §1, §2
as §3, with “Thrips” for “Tetranychus urticae”, “by” for “by compounds”, “100” for “5”

eggs of Aleyrodidae = experiment: Effect on hatching of eggs of Aleyrodidae, leaf disc method; details: 10 ppm; for Hatching rate (%), Replicate 1 / Hatching rate (%), Replicate 2 / Hatching rate (%), Replicate 3 / Number of hatched larvae 5 days after insecticide delivery, Replicate 1 / Number of hatched larvae 5 days after insecticide delivery, Replicate 2 / Number of hatched larvae 5 days after insecticide delivery, Replicate 3: Aleyrodidae eggs; for Hatching rate (%), Replicate 1 / Hatching rate (%), Replicate 2 / Hatching rate (%), Replicate 3: 5 days after delivery; for Number of hatched larvae 5 days after insecticide delivery, Replicate 1 / Number of hatched larvae 5 days after insecticide delivery, Replicate 2 / Number of hatched larvae 5 days after insecticide delivery, Replicate 3: leaf disc
Procedure: as §1, §2
as §3, with “Aleyrodidae” for “Tetranychus urticae”, “10” for “5”

[2] = test system: eggs of Harmonia axyridis; experiment: Effect on hatching of eggs of Harmonia axyridis, egg card immersion; details: 100 ppm; for Number of hatched larvae 4 days after insecticide delivery, Replicate 1 / Number of hatched larvae 4 days after insecticide delivery, Replicate 2 / Number of hatched larvae 4 days after insecticide delivery, Replicate 3: Harmonia axyridis egg cards, immersed 30 seconds; for Hatching rate (%), Replicate 1 / Hatching rate (%), Replicate 2 / Hatching rate (%), Replicate 3: Harmonia axyridis eggs, 4 days after delivery
From the text: The eggs of Harmonia axyridis cards (with approximately 20 eggs per card) were purchased from Henan Jiyuan Baiyun Industry Co., Ltd. in Henan Province. The number of eggs on the egg cards was counted as the basic number before insecticide delivery, and 5 cards were used as one treatment, with 3 replicates per treatment. After immersing the egg cards in a 100 ppm insecticide solution for 30 seconds, they were taken out and air dried, then cultivated under moisturizing conditions, and the […] were cultivated at 27° C. 4 days after insecticide delivery, the hatching status of eggs of Harmonia axyridis was investigated, and the prevention and control effect was calculated according to the following formula. [formula] [formula]

[3] = Replicate 1, listed as 1′-(R, S)
[4] = Replicate 2, listed as 1′-(R, S)
[5] = Replicate 3, listed as 1′-(R, S)
[6] = Replicate 1, listed as 1′-(S, R)
[7] = Replicate 2, listed as 1′-(S, R)
[8] = Replicate 3, listed as 1′-(S, R)

For CC(COc1ccc(Cl)cc1Cl)OS(=O)OCCF [1′-(R,S)], the “inhibitory activity on the hatching of eggs of Tetranychus urticae (in words)” value [1] was “strong inhibitory activities”, the “Hatching rate (%)” value [1, 3] was 0.00% and the “Hatching rate (%)” value [1, 4] was 0.00%. The “Number of hatched larvae 5 days after insecticide delivery” value [1, 3] was 0, the “Number of hatched larvae 5 days after insecticide delivery” value [1, 4] was 0 and the “inhibitory activity on the hatching of eggs of Thrips (in words)” value (eggs of Thrips) was “strong inhibitory activities”. For the same compound, the “Hatching rate (%)” value (eggs of Thrips; [3]) was 0.00%, the “Hatching rate (%)” value (eggs of Thrips; [4]) was 0.00% and the “Hatching rate (%)” value (eggs of Thrips; [5]) was 0.00%. The “Number of hatched larvae 5 days after insecticide delivery” value (eggs of Thrips; [3]) was 0, the “Number of hatched larvae 5 days after insecticide delivery” value (eggs of Thrips; [4]) was 0 and the “Number of hatched larvae 5 days after insecticide delivery” value (eggs of Thrips; [5]) was 0. For the same compound, the “inhibitory activity on the hatching of eggs of Aleyrodidae (in words)” value (eggs of Aleyrodidae) was “strong inhibitory activities”, the “Hatching rate (%), Replicate 1” value (eggs of Aleyrodidae; listed as 1′-(R, S)) was 0.00% and the “Hatching rate (%), Replicate 2” value (eggs of Aleyrodidae; listed as 1′-(R, S)) was 0.00%. The “Hatching rate (%), Replicate 3” value (eggs of Aleyrodidae; listed as 1′-(R, S)) was 0.00%, the “Number of hatched larvae 5 days after insecticide delivery, Replicate 1” value (eggs of Aleyrodidae; listed as 1′-(R, S)) was 0 and the “Number of hatched larvae 5 days after insecticide delivery, Replicate 2” value (eggs of Aleyrodidae; listed as 1′-(R, S)) was 0. For the same compound, the “Number of hatched larvae 5 days after insecticide delivery, Replicate 3” value (eggs of Aleyrodidae; listed as 1′-(R, S)) was 0, the “inhibitory activity on the hatching of eggs of Harmonia axyridis (in words)” value [2] was “strong inhibitory activities” and the “Number of hatched larvae 4 days after insecticide delivery, Replicate 1” value ([2]; listed as 1′-(R, S)) was 0. The “Number of hatched larvae 4 days after insecticide delivery, Replicate 2” value ([2]; listed as 1′-(R, S)) was 0, the “Number of hatched larvae 4 days after insecticide delivery, Replicate 3” value ([2]; listed as 1′-(R, S)) was 0 and the “Hatching rate (%), Replicate 1” value ([2]; listed as 1′-(R, S)) was 0.00%. For the same compound, the “Hatching rate (%), Replicate 2” value ([2]; listed as 1′-(R, S)) was 0.00% and the “Hatching rate (%), Replicate 3” value ([2]; listed as 1′-(R, S)) was 0.00%.

CC(COc1ccc(Cl)cc1Cl)OS(=O)OCCF [1′-(S,R)] was tested, and the “inhibitory activity on the hatching of eggs of Tetranychus urticae (in words)” value [1] was “strong inhibitory activities”, the “Hatching rate (%)” value [1, 6] was 0.00% and the “Hatching rate (%)” value [1, 7] was 0.00%. The “Number of hatched larvae 5 days after insecticide delivery” value [1, 6] was 0, the “Number of hatched larvae 5 days after insecticide delivery” value [1, 7] was 0 and the “inhibitory activity on the hatching of eggs of Thrips (in words)” value (eggs of Thrips) was “strong inhibitory activities”. For the same compound, the “Hatching rate (%)” value (eggs of Thrips; [6]) was 0.00%, the “Hatching rate (%)” value (eggs of Thrips; [7]) was 0.00% and the “Hatching rate (%)” value (eggs of Thrips; [8]) was 0.00%. For the same compound, the “Number of hatched larvae 5 days after insecticide delivery” value (eggs of Thrips; [6]) was 0, the “Number of hatched larvae 5 days after insecticide delivery” value (eggs of Thrips; [7]) was 0 and the “Number of hatched larvae 5 days after insecticide delivery” value (eggs of Thrips; [8]) was 0. For the same compound, the “inhibitory activity on the hatching of eggs of Aleyrodidae (in words)” value (eggs of Aleyrodidae) was “strong inhibitory activities”, the “Hatching rate (%), Replicate 1” value (eggs of Aleyrodidae; listed as 1′-(S, R)) was 0.00% and the “Hatching rate (%), Replicate 2” value (eggs of Aleyrodidae; listed as 1′-(S, R)) was 0.00%. For the same compound, the “Hatching rate (%), Replicate 3” value (eggs of Aleyrodidae; listed as 1′-(S, R)) was 0.00%, the “Number of hatched larvae 5 days after insecticide delivery, Replicate 1” value (eggs of Aleyrodidae; listed as 1′-(S, R)) was 0 and the “Number of hatched larvae 5 days after insecticide delivery, Replicate 2” value (eggs of Aleyrodidae; listed as 1′-(S, R)) was 0. For the same compound, the “Number of hatched larvae 5 days after insecticide delivery, Replicate 3” value (eggs of Aleyrodidae; listed as 1′-(S, R)) was 0, the “inhibitory activity on the hatching of eggs of Harmonia axyridis (in words)” value [2] was “strong inhibitory activities” and the “Number of hatched larvae 4 days after insecticide delivery, Replicate 1” value ([2]; listed as 1′-(S, R)) was 0. For the same compound, the “Number of hatched larvae 4 days after insecticide delivery, Replicate 2” value ([2]; listed as 1′-(S, R)) was 0, the “Number of hatched larvae 4 days after insecticide delivery, Replicate 3” value ([2]; listed as 1′-(S, R)) was 0 and the “Hatching rate (%), Replicate 1” value ([2]; listed as 1′-(S, R)) was 0.00%. For the same compound, the “Hatching rate (%), Replicate 2” value ([2]; listed as 1′-(S, R)) was 0.00% and the “Hatching rate (%), Replicate 3” value ([2]; listed as 1′-(S, R)) was 0.00%.
